For data set [1], the system named is L. donovani axenic amastigote-like parasites. Description: Axenic amastigote assay (CellTiter 96 tetrazolium dye growth assay). The format is cell-based. Conditions: 72 hours, 37° C., pH 5.5, concentration that inhibited parasite growth by 50%. On the procedure: The growth susceptibilities of L. donovani axenic amastigote-like parasites to the candidate compounds were measured in a three day assay using the tetrazolium dye-based CellTiter 96 Aqueous Non-Radioactive Cell Proliferation Assay Kit (Promega, Madison, Wis.) according to Werbovetz, K., et al. (1999) Mol. Biochem. Parasitol. 98:53-65, which is herein incorporated by reference. Pentamidine, at a starting concentration of 100 μM, and serial dilutions thereof were used as controls. Specifically, L. donovani axenic amastigotes, as described by Joshi, M. et al. (1993) Mol. Biochem. Parasitol. 58:345-354, which is herein incorporated by reference, were seeded at 10^6 cells/ml in 96-well flat-bottomed plates (Costar, Cambridge, Mass.) and maintained as axenic amastigote-like forms by serial passage at 37° C. in a humid atmosphere comprising 5% CO2 using a slightly modified potassium-based version of the medium described by Joshi, M. et al. (1993) in the presence or absence of a given candidate compound. The medium comprised 15 mM KCl, […] KH2PO4, 10 mM K2HPO4, 0.5 mM MgSO4, and 24 mM NaHCO3 to give a final potassium concentration of […]. The medium was supplemented with 20% fetal bovine serum and was brought to pH 5.5. The final volume in each well was 60 μl. The plates were incubated at 37° C. for 72 hours, then 12 μl of the aqueous CellTiter solution from the kit (Promega, Madison, Wis.) was added to each well according to the instructions of the manufacturer. The plates were returned to the incubator for about 2 to about 3 hours. Then the absorbance of each well was measured at 490 nm using a SpectraMax Plus microplate reader (Molecular Devices, Sunnyvale, Calif.).
The results for each candidate compound may be found in the FIG. 1. The IC50 values (the concentration of the agent that inhibited parasite growth by 50%) for each candidate compound were determined for axenic amastigotes with the aid of the program SoftMax Pro (Molecular Devices, Sunnyvale, Calif.) using the following dose response equation: y=((a−d)/1+(x/c)^b)+d, wherein x=drug concentration; y=absorbance at 490 nm; a=upper asymptote; b=slope; c=IC50; and d=lower asymptote. FIG. 2 is the graphical data obtained for compound 1DWB667 as an example.

In data set [2] the test system is L. mexicana infected macrophages. Kind of data set: Infected macrophage assay, L. mexicana. In kind it is cell-based. Conditions: for Macrophage IC50 L. mexicana: J774.G8 mouse macrophages, 72 hours, 33° C., number of infected macrophages inhibited by 50%. On the procedure: The susceptibilities of L. mexicania infected macrophages to candidate compounds were determined by the following assay.
(§1) A one week old, confluent culture of J774.G8 mouse macrophages was washed three times with Hank's Balanced Salt Solution (HBSS) without calcium and magnesium (Sigma, St. Louis, Mo.). The J774.G8 mouse macrophages are a continuous cell line that have been cited in the literature as supporting continuous and intracellular growth of various Leishmania sp. and they have been used for drug assays against intracellular parasites, Trypanosoma cruzi and Leishmania sp. See Alcina, A., et al. (1988) Antimicrobial Agents & Chemotherapy. 32(9):1412-5; Mendez, S., et al. (1996) International Journal for Parasitology 26(6):619-22; Hodgkinson, V. H., et al. (1996) Experimental Parasitology 83(1):94-105; and Chang, K. P. (1980) Science 209(4462): 1240-42, which are herein incorporated by reference.
(§2) The macrophages were then incubated at 37° C. in a humidified 5% CO2 incubator for 15 minutes with a Trypsin-EDTA (0.05% Trypsin, 0.53 mM EDTA 4Na) solution (GIBCO BRL, Grand Island, N.Y.). The macrophages were then detached with a cell scraper and suspended by vigorous pipetting. The macrophages were then mixed with a late log phase culture of L. mexicana promastigotes to yield a solution comprising about 5×10^5 macrophages per ml and about 25×10^5 promastigotes per ml in DMEM (pH 7.4) supplemented with 10% heat inactivated fetal calf serum comprising penicillin (50 units/ml) and streptomycin (50 μg/ml).
(§3) The macrophage-parasite mixture was then pipetted into 96-well flat-bottom plates (Costar, Cambridge, Mass.) at 200 μl per well. Infection and attachment of the macrophages was allowed to occur over a period of about 48 hours at 33° C. in a humidified 5% CO2 incubator. The wells were washed three times with HBSS to remove extracellular parasites. Each well was then treated with serial dilutions of a given candidate compound in DMEM.
(§4) The treated plate was incubated for about 72 hours at 33° C. in a humidified 5% CO2 incubator. The macrophages in each well were detached into the DMEM used for the incubation by pipetting and scraping with the tip of a microliter pipettor. 75 μl of the cell suspension was transferred to a cytospin funnel and the cells were centrifuged onto microscope slides at 800 rpm for 5 minutes using a Cytospin centrifuge (Shandon, Pittsburgh, Pa.).
(§5) The slides were air dried and then fixed in methanol for 5 seconds. After the methanol evaporated, the slides were stained with 5% Giemsa stain (Fisher, Suwanee, Ga.) in phosphate buffer comprising 3.1 mM potassium phosphate dibasic and 8.3 mM sodium phosphate monobasic for 45 minutes. After thorough washing with flowing tap water, the slides were air dried and then viewed by oil immersion microscopy to determine percentage of infected cells. A cell was considered to be infected if it comprised one or more amastigote with a visible parasite nucleus and kinetoplast. Counting parasites and counting infected cells provided similar results when determining IC50 values.
(§6) The IC50 values (the concentration of the compound that inhibited the number of infected macrophages by 50%) were determined with the software program TableCurve (SPSS Science, Chicago, Ill.) using the following dose-response equation: y=a+b/(1+(x/c)^d), where x=the drug concentration, y=absorbance at 490 nm, a=upper asymptote, b=slope, c=IC50 and d=lower asymptote. FIG. 3 provides the graphical data obtained for compound 1DWB667 as an example.

Data set [3] has as its system L. donovani infected macrophages. Description: Infected macrophage assay, L. donovani. Conditions: J774.G8 mouse macrophages, 72 hours, 37° C.; number of infected macrophages inhibited by 50%. In kind it is cell-based.
From the text: as §1, §2, §3, §4, §5, §6
The susceptibility of L. donovani infected macrophages to the compounds of the present invention were preformed by a modified protocol for L. mexicana infected macrophages above, wherein all incubations of the parasite infected macrophages were done at 37° C. rather than 33° C. FIG. 4 provides the graphical data for compound 1DWB667 as an example.

In data set [4] the test system is L. donovani L82. Kind of data set: In vivo assay, murine visceral model of leishmaniasis. The arrangement: species or system Leishmania donovani. Conditions: BALB/c mice; for % inhibition ± S.E.M.: Table 4.
The test system of data set [5] is J774.G8 macrophages. Description: Macrophage toxicity assay (sulforhodamine B). In kind it is cell-based, mouse. Conditions: Mus musculus, 72 hours, 37° C., macrophage growth inhibited by 50%. On the procedure: The toxicity of the candidate compounds on J774.G8 macrophages was measured using a sulforhodamine B (Molecular Probes, Eugene, Oreg.) based dye assay.
Specifically, a confluent culture of macrophages in a T75 culture flask was harvested by replacing the growth medium (DMEM supplemented with 10% heat inactivated fetal calf serum, 50 units/ml penicillin, and 50 μg/ml streptomycin) with 25 ml of fresh medium and scraping the cells from the bottom of the culture flask. Cell clumps were broken up by gentle pipetting and the cell suspension was transferred to a 50 ml conical centrifuge tube. The cells were then pelleted by centrifugation at 1,000 rpm at 4° C. for 5 minutes. The supernatant was then removed and the cells were resuspended in 15 ml DMEM.
After counting an aliquot of the cell suspension, the macrophages were then diluted to about 1×10^5 cells/ml in DMEM and 180 μl was added to each well of a 96 well tissue culture plate Then 20 μl serial dilutions of a given candidate compound was added. The plate was then placed in a 37° C. humidified 5% CO2 incubator and incubated for 72 hours. Then 50 μl of 50% TCA was added to each well to fix the proteins. The plate was then incubated for at least 1 hour at 4° C.
The liquid contents of the wells were discarded and the wells were washed five times with 200 μl of distilled water. After the final wash the plate was allowed to air dry for 20 minutes. 100 μl of the sulforhodamine B dye (0.4% dye in 1% acetic acid) was added. The plate was then incubated at room temperature for 20 minutes. After discarding the dye solution, the wells were washed five times with 200 μl of 1% acetic acid and then allowed to air dry for 20 minutes. At this time, 50 μl of 10 mM TRIS base was added. After a few minutes of incubation, the absorbance of each well at 490 nm was measured in a SpectraMax Pro microplate reader (Molecular Devices, Sunnyvale, Calif.).
The IC50 values for each candidate compound (the concentration of the agent that inhibited macrophage growth by 50%) were determined for the macrophages with the aid of the program SoftMax Pro (Molecular Devices, Sunnyvale, Calif.) using the following dose response equation: y=((a−d)/1+(x/c)^b)+d, where x=drug concentration; y=absorbance at 490 nm; a=upper asymptote; b=slope; c=IC50; and d=lower asymptote. FIG. 5 provides the graphical data for compound 1DWB667 as an example.

Converted amounts (≈) assume the structure as drawn. “Also recorded” adds a separate entry of the source. Counter-ions that a name gives are not always drawn.

With “2,5-Bis[2,6-dimethyl-4-(2-pyridylimino)aminophenyl]furan [DB 714]”, in data set [1], the “Axenic Amastigote IC50 L. donovani” value was 0.290 µg/mL. The “Macrophage IC50 L. mexicana” value in data set [2] was found to be 0.359 µg/mL. Further, the “Macrophage IC50 L. donovani” value in data set [3] came out at 0.246 µg/mL.

Take “2,5-Bis[2-methyl-4-(2-quinolylimino)aminophenyl]furan [DB716]”: the “Axenic Amastigote IC50 L. donovani” value in data set [1] is recorded as “about 10 μg/ml”.

On to `N=C(Nc1ccc(-c2ccc(-c3ccc(NC(=N)c4ccccc4)cc3)o2)cc1)c1ccccc1` (as salt: hydrochloride) [DB613, 2,5-Bis[4-(benzimidoylamino)phenyl]furan], for which the melting point was 312 to 314.5 °C.

Regarding `C[C@@H]1[C@H](O)[C@@H](C)/C=C/C=C/C=C/C=C/C=C/C=C/C=C/[C@H](O[C@@H]2O[C@H](C)[C@@H](O)[C@H](N)[C@@H]2O)C[C@@H]2O[C@](O)(C[C@@H](O)C[C@@H](O)[C@H](O)CC[C@@H](O)C[C@@H](O)CC(=O)O[C@H]1C)C[C@H](O)[C@H]2C(=O)O` [Amphotericin B, reference compound], the “Axenic Amastigote IC50 L. donovani” value in data set [1] is 0.342 µg/mL. For the same compound, in data set [2], the “Macrophage IC50 L. mexicana” value was determined as 0.032 µg/mL. The “Macrophage IC50 L. donovani” value in data set [3] was determined as 0.024 µg/mL.

On to `c1cc(-c2ccc(-c3ccc(N=NC4CCCCC4)cc3)o2)ccc1N=NC1CCCCC1` [DB656, 2,5-Bis[4-(cyclohexylimino)aminophenyl]furan], for which the melting point was 242 to 243 °C (dec.).

`N=C(N)Nc1ccc(-c2ccc(-c3ccc(NC(=N)N)cc3)s2)cc1` [DB686, 2,5-Bis(4-guanidinophenyl)thiophene]: the “% inhibition ± S.E.M.” value in data set [4] (10 mg/kg p.o. × 5) is 34.91 ± 8.04%.

In the case of `N=C(N)c1ccc(OCCCCCOc2ccc(C(=N)N)cc2)cc1` [Pentamidine, reference compound], the IC50 in data set [1] (Leishmania donovani) is 1.22 µg/mL (≈ 3.58 µM); in data set [2] (Leishmania mexicana, Macrophage, in Mus musculus, 72 h, read-out: Macrophage IC50 L. mexicana) it was more than 12.5 µg/mL; in data set [5], 9.96 µg/mL (≈ 29.3 µM). Besides, in data set [2] (in vitro, cutaneous strain), the “reduction of parasite burden in L. mexicana infected macrophages (in words)” value is “ineffective in the macrophage model; also recorded: did not reduce the parasite burden”. Also, the “% Inhib. ± SEM” value is on record as 30.5 ± 5.0% in data set [4] (Table 3, 5 mg/kg i.v. × 5 (doses reduced by half, see footnotes a, c)) and 30.6 ± 5.2% in data set [4] (Table 5, 4 mg/kg i.v. × 5). Besides, in data set [4] (4 mg/kg i.v. × 5), the “% inhibition ± S.E.M.” value is given as 16.96 ± 3.3%.

For the origin of these results see patent US6706754B2, “Reversed amidines and methods of using for treating, preventing, or inhibiting leishmaniasis” (The United States of America as represented by the …, priority 2000, dated 2004).
